How the values were obtained:
[1] = clinical; details: human, in vivo
[2] = Mass balance study with [14C]vibegron, healthy subjects; details: human plasma, 2 and 4 hr
[3] = Phase 2b OAB study, cardiovascular safety (HR, SBP, DBP, orthostatic AEs); format: in vivo, human; details: 4 mg
Text: None led to discontinuation. The overall incidence of orthostatic symptoms was low.
Small differences in the percent of subjects exceeding categorical heart rate and blood pressure thresholds for vibegron were similar to those in the tolterodine arm.

[4] = Phase 2b OAB study, adverse events
Text: A placebo group was included in the main study, and a group that received tolterodine monotherapy was included in the main study and in the extension.

[5] = Drug interaction: effect of vibegron on conmed PK; details: human, in vivo, 4 mg
[6] = cited from earlier work

With `C[C@H]1O[C@@H](O[C@H]2[C@@H](O)C[C@H](O[C@H]3[C@@H](O)C[C@H](O[C@H]4CC[C@@]5(C)[C@H](CC[C@@H]6[C@@H]5C[C@@H](O)[C@]5(C)[C@@H](C7=CC(=O)OC7)CC[C@]65O)C4)O[C@@H]3C)O[C@@H]2C)C[C@H](O)[C@@H]1O` [Digoxin] the AUC ([1]; 0.25 mg) was 16.6 ng·h/mL.
In the case of `C#C[C@]1(O)CC[C@H]2[C@@H]3CCc4cc(O)ccc4[C@H]3CC[C@@]21C` [EE, ethinyl estradiol], the AUC ([1]; 0.03 mg) was 0.81 ng·h/mL and the Cmax ([1]; 0.03 mg) was 0.0719 ng/mL.
Work on `C#C[C@]1(O)CC[C@H]2[C@@H]3CCC4=CC(=O)CC[C@@H]4[C@H]3CC[C@@]21CC` [LNG, levonorgestrel] yielded an AUC ([1]; 0.15 mg) of 31 ng·h/mL and a Cmax ([1]; 0.15 mg) of 2.07 ng/mL.
In the case of `O=C(O)C1OC(OC(c2ccccc2)C2CCC(Cc3ccc(NC(=O)C4CCc5nccc(=O)n54)cc3)N2)C(O)C(O)C1O` (stereo not shown) [M7], the “share of total circulating drug-related material” value [2] was 12-14%.
With `Cc1ccc(O)c([C@H](CCN(C(C)C)C(C)C)c2ccccc2)c1` [Tolterodine ER, reference compound] the “DBP change from baseline, mean (95% CI) max, week 1 to 8” value [3] was 5.19 (4.26, 6.13) mm Hg, the “DBP change from baseline, mean (95% CI), week 1” value [3] was −0.12 (−1.10, 0.86) mm Hg and the “HR change from baseline, mean (95% CI) maximum, week 1 to 8” value [3] was 5.66 (4.69, 6.63) bpm. For the same compound, the “HR change from baseline, mean (95% CI), week 1” value [3] was 0.68 (−0.31, 1.67) bpm, the “SBP change from baseline, mean (95% CI) maximum, week 1 to 8” value [3] was 7.29 (6.01, 8.57) mm Hg and the “SBP change from baseline, mean (95% CI), week 1” value [3] was 0.04 (−1.36, 1.43) mm Hg. The “Discontinuation due to drug-related AE, subjects” value ([4]; first 12 weeks, dose group by column) was 0 n, the frequency of injuries ([4]; human, in vivo) was 2.1% and the Cmax [5] was 2.28 ng/mL.
For `O=C(O)c1cccc(-c2cccc(NCCNC[C@H](O)c3cccc(Cl)c3)c2)c1` [solabegron], the “number of pain- and discomfort-free days vs placebo” value ([6]; Phase IIa, IBS, females) is given as “statistically significant increase”, the clinical benefit ([6]; Phase IIa, IBS, male subjects) is given as “no clinical benefit” and the “bowel function and plasma somatostatin concentration” value ([6]; healthy volunteers) is given as “no effect”. For the same compound, the “gastrointestinal or colonic transit” value ([6]; healthy volunteers) was “did not significantly alter”.

From patent US20210196720A1 (UROVANT SCIENCES GMBH, priority 2018, published 2021)
